From PMC9864008, “Novel Black Seed Polysaccharide Extract-g-Poly (Acrylate) pH-Responsive Hydrogel Nanocomposites for Safe Oral Insulin Delivery: Development, In Vitro, In Vivo and Toxicological Evaluation” (Pharmaceutics, 2022)

How the values were obtained:
[1] = system: diabetic male albino rabbits; assay: In vivo pharmacodynamics: blood glucose level in alloxan-induced diabetic rabbits; set-up: species or system rabbit; details: for Blood glucose level (% of initial, % BGL) at maximum decrease: n = 6, oral 10 IU/kg or SC 5 IU/kg, SC standard within first 3 h, Ins-BA hydrogel at 8 h, Ins-Mmt-BA hydrogel NC at 20 h
Method: A crossover study was designed to evaluate the insulin intestinal absorption and its release pattern over time from the developed BA hydrogels versus Ins-Mmt-BA hydrogel NCs. For this purpose, under the approval of IREC vide notification number IREC-2020-22, strictly following OECD guidelines, a total of 30 healthy male albino rabbits (≥2 kg weight) were taken. All animals were exposed to 12 h light and darkness cycles for 7 days to acclimatize with ambient atmosphere. For diabetes induction, all rabbits were administered alloxan monohydrate injection (Sigma-Aldrich, Germany) in a single intraperitoneal dose of 150 mg/kg. A 5% glucose solution was administered ad libitum for 24 h to avoid alloxan-induced hypoglycemia. To confirm diabetes induction all, animals’ blood was withdrawn daily from the ear marginal vein for checking blood glucose levels with the help of a glucometer and glucose strips (ACCU-CHEK®, Roche, Basel, Switzerland) for 10 days. Rabbits displaying fasting blood glucose levels higher than 150 mg/dL were considered as diabetic.

[2] = cited from earlier work
From the text: Humulin® R U-100 (containing human insulin with the strength 100 units/mL) is a sterile, colourless and aqueous solution formulation. It is a short-acting polypeptide hormone produced by an Escherichia coli strain obtained by using recombinant DNA technology. Firstly, it controls blood sugar by inhibiting hepatic glucose production, and secondly, it stimulates glucose uptake from peripheral skeletal muscles and fat cells. When administered subcutaneously (SC), it starts showing therapeutic response within 30 min and its effect lasts up to 8h, with the dose in the range of 0.05–0.4 units/kg. W ...

[3] = rabbit, in vivo
Method: After diabetes induction, the rabbits were placed into 5 groups (n = 6) randomly. The first group was orally administered with ground Ins-BA hydrogel (10 IU/kg) by an oral gavage needle with 5 mL of water to ensure complete dose administration. The second group was given orally the ground Ins-Mmt-BA hydrogel NC (10 IU/kg). The third group, acting as a positive control, was subcutaneously (SC) injected with standard Humulin-R® insulin (5 IU/kg). The fourth group was orally administered with insulin solution (10 IU/kg). The fifth group, acting as a negative control was administered with blank hydrogel. Blood samples were taken at specified intervals (0, 1, 2, 3, 4, 6, 8, 10, 12, 16, 20, 22 and 24 h) from the jugular vein and collected in EDTA containing sample collection tubes. The blood samples were then centrifuged at 3500 rpm for 15 min and separated plasma samples were stored at –20 °C for further detection of insulin by the HPLC method. At the same intervals, blood samples were also checked for blood glucose levels by a glucometer for observing the pharmacodynamic effect of the administered dosage forms [8].
For pharmacokinetic evaluation, a previously developed HPLC method for insulin detection in plasma was used with slight modifications [37]. The HPLC system (Hitachi, Tokyo, Japan) comprising a Gilson delivery pump with a 6-valved sample injection port fitted with a 20 µL sample loop, A UV-visible detector, thermostat column and chromato-integrator were used for sample analysis. The RP-C18 (150 × 4.60 mm ID, 5 µm) analytical column (Phenomenex, Torrance, CA, USA) was used. The mobile phase was prepared by 0.2 M Na2SO4 solution with pH adjusted to 2.3 with orthophosphoric acid mixed with acetonitrile (74:26) and filtered through 0.5 µm membrane filters and sonicated for 10 min to remove dissolved gas bubbles. The stock solution of insulin at 140 µg/mL strength was made in PBS. The serial dilutions of insulin solution (3.5 µg/mL to 140 µg/mL) after filtering through a 0.2 µm membrane filter were injected into a chromatographic column to find the linearity curve to develop a method for insulin detection. The linearity curve with the same serial dilutions of insulin in plasma was also determined. For sample preparation from collected plasma, 200 µL of thawed plasma (collected at different intervals) was mixed with 800 µL of n-hexane:dichloromethane (1:1). The mixture was centrifuged for 10 min at 3500 rpm (Hitachi Zentrifugen EBA 20, Hitachi Ltd., Tokyo, Japan). The supernatant with extracted insulin was used after filtering through a 0.22 µm membrane filter (Sartorius, Göttingen, Germany) for injection into the HPLC system. […]

[4] = intravenous, dose 0.1–0.2 units/kg
[5] = subcutaneous, dose 0.05–0.4 units/kg

Row | Substance | Blood glucose level (% of initial, % BGL) at 8 h ([1]; n = 6, SC 5 IU/kg, 8 h interval) [%] | Blood glucose level (% of initial, % BGL) at maximum decrease [1] | Duration of effect after IV administration [2, 4] | Start of pharmacologic effect after IV administration [2, 4] | Duration of effect after SC administration [2, 5] | Start of therapeutic response after SC administration [2, 5] [min] | Cl [3] [mL/h] | Vd [3] [mL] | t1/2 [3] [h] | tmax [3] [h]
1 | SC insulin standard: standard Humulin-R human insulin injection, 100 IU/mL, given subcutaneously | 59.67 | 13.55% | up to 4 h | 10–15 min | up to 8 h | ≤ 30 | 13.361 | 67.326 | 3.493 | 3
2 | oral insulin solution: insulin solution administered orally (10 IU/kg) | – | no significant decrease in % BGL | – | – | – | – | – | – | – | –
